Measurements from PMC8160438, “A Novel Heptapeptide, GPPGPAG Transfers to the Brain, and Ameliorates Memory Dysfunction and Dendritic Atrophy in Alzheimer’s Disease Model Mice” (Frontiers in Pharmacology, 2021).
No end group written: not given here.

What was measured:
Stability in saline = format: physicochemical; conditions: 5 μg/ml, 37°C, 0, 10, 60, 180 min, LC-MS, n = 1
Experimental: (§1) For intraventricular administration, GPPGPAG was dissolved in artificial cerebrospinal fluid (ACSF; 130 mM NaCl, 24 mM NaHCO3, 3.5 mM KCl, 1.3 mM Na2HPO4, 2 mM CaCl2, 2 mM MgCl2 6H2O, and 10 mM glucose at pH 7.4) for use. GPPGPAG or ACSF was continuously injected for 28 days into the left ventricle (bregma: −0.2 mm, lateral: 1.0 mm, depth: −3.0 mm) using Alzet Osmotic Pump (1004, DURECT Corporation, CA, United States) and ALZET Brain Infusion Kit 3 (DURECT Corporation). Based on the amount of CSF produced which was 18 μL/h and the pump flow rate of 0.11 μL/h, the peptide in the pump was estimated to be diluted 164 times in the CSF to reach a final concentration 10 nM which was the effective dose in the cultured neuron experiments. Therefore 1.64 µM GPPGPAG was loaded into the pump. Stability of GPPGPAG in saline, mouse plasma and mouse cerebral cortex was confirmed by LC-MS quantification. GPPGPAG was mixed with saline or plasma at 5 μg/ml concentration. Otherwise, GPPGPAG was mixed with cortical lysate at 6.5 μg/g of cortex. After incubation at 37°C for 0, 10, 60, and 180 min, samples were dried up and served to LC-MS. Areas of MS peaks of GPPGPAG were quantified. […]
(§2) Stability of GPPGPAG in biological fluids.
(§3) (A) GPPGPAG was mixed with saline at 5 μg/ml concentration. (B) GPPGPAG was mixed with mouse plasma at 5 μg/ml concentration. […]

[1] = Cerebral cortex level after oral administration (brain penetration), LC-MS; format: in vivo, mouse
Experimental: Bioavailability and brain penetration of GPPGPAG was performed as previously described ([Yang et al., 2017]). GPPGPAG (500 mg) was dissolved in 750 μL of physiological saline. […] The mice were euthanized at 10, 60, and 180 min after administration. Blood was collected and centrifuged at 10,000 g and 4°C for 10 min to yield plasma. Plasma aliquots (200 μL) were extracted with methanol, dried, sonicated, and resolubilized in 50% methanol (100 μL). The cerebral cortex was also collected after complete saline perfusion for removing blood. The cortex was homogenized, extracted with methanol, dried, sonicated, and resolubilized in 50% methanol (100 µL). To calculate GPPGPAG concentration in the plasma and brain using liquid chromatography-mass spectrometry (LC-MS), a standard curve was generated by analyzing standard amounts of GPPGPAG solubilized in methanol at a dosage of 1, 5, and 10 μg/ml. A Thermo Scientific Accela high-performance LC (HPLC) system, interfaced with an LTQ Orbitrap XL hybrid Fourier Transform Mass Spectrometer (Thermo Fisher Scientific), was used to chemically profile GPPGPAG and the biosamples. The LC analysis was performed on a InertSustain AQ-C18 (4.6 mm ID × 50 mm, 5 μm, GL Sciences, Tokyo, Japan) held at 40°C with a flow rate of 200 μL/min 0.01% formic acid in water (a) and methanol (b) were used in the mobile phase, with the following linear elution gradient: 0–15 min, 10–90% b; 15–18 min, 90–10% b; 18–20 min, 10% b. The following electrospray interface (ESI) parameters were used: spray voltage, 4.5 kV; capillary voltage, […]; tube lens, 150 V; capillary temperature, 330°C; sheath gas flow rate, 50 units; aux gas flow rate, 10 units. […]
[…] (A) Total ion chromatogram (upper) and extracted ion current chromatogram (lower) of standard GPPGPAG (m/z = 552.2753) at 10 μg/ml for quantification of (B) and (C) data. […] In total ion chromatogram (upper) and extracted ion current chromatogram (lower) of m/z = 552.2753, no peaks were detected. […] In total ion chromatogram and extracted ion current chromatogram of m/z = 552.2753, peaks matching the retention time of GPPGPAG were detected. (D) Total ion chromatogram (upper) and extracted ion current chromatogram (lower) of standard GPPGPAG (m/z = 552.2716) at 10 μg/ml for quantification of (E) and (F) data. […] In total ion chromatogram (upper) and extracted ion current chromatogram (lower) of m/z = 552.2716, no peaks were detected. […] In total ion chromatogram and extracted ion current chromatogram of m/z = 552.2716, peaks matching the retention time of GPPGPAG were detected. Quantified amount of GPPGPAG in the plasma (G) and cerebral cortex (H) are shown. *p < 0.05, ****p < 0.0001 vs, saline 10 min, one-way ANOVA with post hoc Bonferroni’s test, mean ± standard error, n = 3 mice.

[2] = Stability in mouse plasma; format: in vitro ADME; conditions: 5 μg/ml, 37°C, 0, 10, 60, 180 min, LC-MS, n = 1
Experimental: as §1, §2, §3

cortical neurons = assay: Entry into cultured cortical neurons, LC-MS of the lysate; format: in vitro ADME, mouse; conditions: 1 mg/dish, 1.0 x 10^7 cells/10-cm dish, 0, 10, 20, 30, 60, 180, 360 min
Experimental: Intracellular amount of GPPGPAG after addition to cultured cortical neurons.
Mouse cortical neurons were seeded at 1.0 x 10^7 cells/10-cm dish. After 3 – 4 days culture, 1 mg/dish GPPGPAG was added. Incubation time was 0, 10,20, 30, 60, 180 and 360 min. After complete washing by PBS, cell lysate was prepared by M-PER solution. The lysate was ultrasonicated with methanol for 60 sec, and centrifuged (12000g) for 10 min at 4℃. Supernatant was dried up and served for […]
(1 picture or pasted object on this page, not shown here)

[3] = Stability in lysate of mouse cerebral cortex; format: in vitro ADME
Experimental: as §1, §2, §3

With GPPGPAG [GPPGPAG] the “stability, amount remaining (MS peak area)” value (shortened to “stability, amount remaining”) (Stability in saline) was “not declined during 180 min-incubation”, the “transferred amount in the brain” value ([1]; calculated for 10 mg/kg per orally from the cortex level at 500 mg/mouse) was 0.598 pmol and the tissue level at time at 3 h ([1]; cerebral cortex, po, 180 min after p.o. administration of 500 mg/mouse, ddY mice, female, LC-MS, mean of n = 3) was 2750 ng/g. For the same substance, the “detection in the cerebral cortex” value ([1]; ddY mice, female, 8 weeks, 500 mg/mouse p.o. single dose, cortex after saline perfusion, LC-MS, n = 3) was “detected 10 min later”, the “detection in plasma and cerebral cortex” value ([1]; male mouse, 9 weeks old, p.o. administration, data not shown) was “similarly detected in the plasma and cerebral cortex” and the “stability, amount remaining” value [2] was “gradually reduced after 60-min incubation”. For the same substance, the “entry into the neurons (intracellular amount)” value (cortical neurons) was “detected from 10 min after treatment and gradually increased up to 360 min afterward”, the “stability, amount remaining” value ([3]; fresh lysate of mouse cerebral cortex, 6.5 μg/g of cortex, 37°C, 0, 10, 60, 180 min, LC-MS, n = 1) was “declined at 60 min after the incubation” and the “time retained in the brain after entering” value ([3]; inferred from stability in plasma and cortical lysate) was at most 10 min.
